Laboratory results taken from paper PMC12535076, “Neurotherapeutic effects of Vutiglabridin as a Paraoxonase-2 modulator in preclinical models of Parkinson’s disease” (Molecular Neurodegeneration, 2025).

Assays:
[1] = QWBA and plasma radioactivity after oral 14C-Vuti in rats; format: in vivo, Sprague-Dawley rat; conditions: abstract statement; species not stated there
Procedure: Male 8-week-old Sprague Dawley rats (n = 5, 16 h fasted; Charles River Laboratories Japan Inc., Yokohama, Japan) were orally administered 10 mg/kg of ^14C-Vuti (equivalent to radioactivity of 3.7 MBq/kg, Glaceum Inc., Suwon, Korea). After 2, 6, and 24 h, each rat was euthanized by CO2 inhalation. The nasal cavity and anus were filled with 4% w/v sodium carboxymethyl cellulose, and the carcass was frozen in a dry ice-acetone mixture. […] The radioactivity was measured by the bio-imaging analyzer system (FUJIX-BAS2500, Fujifilm, Tokyo, Japan; resolution µm, gradation 256, sensitivity 10000, latitude 4), in which the radioactivity in organs was converted to the photo-stimulated luminescence per unit area (PSL/mm^2) minus the background radioactivity of the plastic standard samples. Tissue radioactivity in whole-body auto-radiograms was quantified by densitometry using an MCID image analysis software (v. 7.0, MCID Image Analysis Software Solutions for Life Sciences, Cambridge, UK). Radioactivity concentrations were expressed as ng equivalents of ^14C-Vuti per gram tissue (ng eq/g tissue). […]
For measuring the radioactive concentration in the plasma, blood (250 uL) was collected from the tail vein of the animals (n = 3) of the exact same conditions as the animals used for QWBA assay. […] Then the tissue to blood ratio was calculated. […]

[2] = molecular target: T1, MAO-A (Homo sapiens, UniProt P21397); assay: HRP/Amplex red based MAO-A enzyme activity assay; format: biochemical; conditions: read-out: IC50, MAO-A assay, HRP/AR method
T1 sequence (P21397 1-527): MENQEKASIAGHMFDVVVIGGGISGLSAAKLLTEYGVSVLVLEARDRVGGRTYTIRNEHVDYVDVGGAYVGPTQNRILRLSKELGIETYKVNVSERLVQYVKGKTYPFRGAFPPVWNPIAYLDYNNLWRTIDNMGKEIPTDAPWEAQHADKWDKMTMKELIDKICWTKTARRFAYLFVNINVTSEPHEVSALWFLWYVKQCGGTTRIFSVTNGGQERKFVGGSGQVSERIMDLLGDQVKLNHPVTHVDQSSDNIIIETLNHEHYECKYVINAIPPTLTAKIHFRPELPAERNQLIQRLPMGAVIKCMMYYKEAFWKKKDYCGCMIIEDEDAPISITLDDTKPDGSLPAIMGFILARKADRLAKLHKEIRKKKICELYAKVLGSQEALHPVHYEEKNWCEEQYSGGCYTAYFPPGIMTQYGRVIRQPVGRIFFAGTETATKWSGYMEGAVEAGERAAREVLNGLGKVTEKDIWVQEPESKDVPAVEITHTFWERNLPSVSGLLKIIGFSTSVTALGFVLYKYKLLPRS
Procedure: MAO-A or MAO-B enzyme solutions were prepared by diluting 10 µL of a 2.5 mg/mL MAO-A or MAO-B stock into 10 mL of 50 mM sodium phosphate buffer (pH 7.4). A substrate assay mixture was then prepared by combining benzylamine (for MAO-B) or tyramine (for MAO-A) from a 100 mM stock (200 µL in 10 mL phosphate buffer, final concentration 1 mM) with 100 µL of a 20 mM AR reagent stock (final concentration 0.1 mM) and 100 µL of a 200 U/mL HRP stock (final concentration 1 U/mL) in 10 mL phosphate buffer. […] Next, 50 µL of the substrate assay mixture was added, and the reaction was carried out at 37 °C for 60 min. The production of resorufin was quantified by fluorescence measurement (excitation at 540 nm and emission at 580 nm).

[3] = molecular target: T1, MAO-A; assay: ROS Glo based MAO-A enzyme activity assay; format: biochemical; conditions: printed as 'separate MAO-B assay' within the MAO-A panel (b); read-out: IC50, ROS-Glo method, panel (b)
Procedure: An enzyme solution was prepared by diluting 10 µL of a 2.5 mg/mL MAO-A or MAO-B stock in 10 mL of 50 mM sodium phosphate buffer (pH 7.4). A substrate solution was prepared by diluting 200 µL of a 100 mM benzylamine (or tyramine) stock in 10 mL phosphate buffer to achieve a final concentration of 1 mM. For each 96-well plate experiment, 12.5 µL of a 1× H2O2 probe solution was added to 1 mL of the probe dilution buffer from the ROS Glo™ kit. Separately, 40 µL of cysteine and enhancer were diluted into 4 mL of Luciferin solution. In each well, 49 µL of the enzyme solution was dispensed, followed by 1 µL of the test compound, and incubated for 30 min. Then, 49 µL of the substrate solution was added, and the reaction proceeded at 37 °C for 60 min. Next, 10 µL of the H2O2 probe solution was added and incubated for 15 min. Subsequently, 40 µL of a luciferin solution containing cysteine and an enhancer was added, followed by an additional 30-minute incubation at 37 °C. Luminescence was subsequently recorded using a microplate luminescence reader (SpectraMax i3, Molecular Devices).

## CCOc1ccc(C2COc3c(ccc4c3CCC(C)(C)O4)C2)c(O)c1 (stereo not drawn) [Vuti, Vutiglabridin]
[1]
  duration of presence in the brain: over 24 h
[2]
  IC50: 288 µM
[3]
  IC50: 24.7 µM
